# Article PMC8379256, “A xanthene derivative, DS20060511, attenuates glucose intolerance by inducing skeletal muscle-specific GLUT4 translocation in mice” (Communications Biology, 2021)
# Where “and” joins values, the source holds several entries; their conditions need not be identical. Equal entries are not always repeated.
# Columns and labels:
# AMPK = AMPK (Thr172) phosphorylation in isolated muscles with or without electrical stimulation; set-up: species or system mouse; details: isolated skeletal muscle; 10 μM DS20060511; Fig. 6b
# STZ-treated C57BL/6 mice = test: Insulin tolerance test (ITT) in STZ-treated C57BL/6 mice; assay type: in vivo, mouse; details: for Blood glucose: ITT
# Method: Arrowheads indicate the characteristic ruffled structure of the polymerized actin and actin-associated surface GLUT4. d GLUT4 translocation activity of 30 μM DS20060511 or 100 nM insulin in the presence of the actin polymerization inhibitor, Latrunculin B, at the indicated concentrations. Values shown are means ± SEM, n = 3. **P < 0.01 vs. 0 nM Latrunculin B by one-way ANOVA followed by Dunnett’s test. e Concentration-dependent insulin-stimulated GLUT4 translocation in L6-GLUT4myc myotubes with or without 30 μM DS20060511 (n = 3). f Concentration-dependent DS20060511-stimulated 2-DG uptake with 100 nM insulin in isolated muscles from C57BL/6 mice (n = 3). Values shown are means ± SEM. ***P < 0.001 by one-way ANOVA followed by Tukey’s test. g Blood glucose levels during ITT in STZ-treated C57BL/6 mice (n = 6–7). Vehicle or indicated dose of DS20060511 was given orally at the same time as 0.1 U kg^−1 insulin injection intraperitoneally. Values shown are means ± SEM. *P < 0.05 vs. vehicle by one-way ANOVA followed by Dunnett’s test. c Scale bar in all panels, 5 μm. Uncropped blots for a and b can be found in Supplementary Fig. 6.
# C57BL/6 mice deprived of access to food overnight received an intraperitoneal injection of STZ (125 mg kg^−1) and a repeat injection a week later. Thereafter, their blood glucose levels were monitored and insufficient mice (blood glucose levels of under 400 mg dL^−1 or blood glucose levels after overnight food deprivation of under 200 mg dL^−1) were excluded from the experiment. Blood glucose levels were measured using Glutest Every (Sanwa Kagaku Kenkyusho, Nagoya, Japan) in blood samples collected from the tail vein.
# Mice received the indicated oral dose of DS20060511 or vehicle at the same time as the intraperitoneal injection of insulin (Humulin) at the indicated dose. Blood glucose levels were measured using Glutest Every in blood samples collected from the tail vein at the indicated timepoints.
# WT and eNOSKO mice = test: Oral GTT in wild-type and eNOS-knockout mice; assay type: in vivo, mouse; details: Glucose tolerance test, 30 mg/kg, individual animals
# [1] = tested on: wild-type and GLUT4KO mice; test: Oral GTT in wild-type and GLUT4 knockout mice; assay type: in vivo, mouse; details: for Blood glucose / Plasma insulin: glucose tolerance test, DS20060511 30 mg/kg, individual animals, 30 mg/kg; for blood glucose and plasma insulin levels during oral GTT (in words): 30 mg kg−1 po
# Method: Fig. 3 The glucose-lowering effect of DS20060511 is totally dependent on GLUT4. a Blood glucose and plasma insulin levels during oral GTT in wild-type (WT, n = 5) and GLUT4 knockout (KO, n = 6) mice. Mice received oral administration of vehicle or DS20060511 (30 mg kg^−1), 15 min prior to the glucose administration (1.5 g kg^−1). Values shown are means ± SEM. *P < 0.05, **P < 0.01 vs. vehicle by the t-test. b DS20060511-stimulated [^3H]-2-DG uptake in the isolated soleus and EDL muscles excised from WT (n = 6) and KO (n = 6) mice. Values shown are means ± SEM. **P < 0.01 vs. vehicle by the t-test.
# C57BL/6 and db/db mice were purchased from CLEA Japan, Tokyo, Japan. GLUT4- knockout mice were generated at RIKEN BioResource Center, Tsukuba, Japan, according to a previously described method. eNOS-knockout mice were kindly provided by Dr. Masato Tsutsui[41],[42]. The mice were group-housed under controlled illumination (12:12 h light-dark cycle) and temperature (23 ± 2 °C) conditions and given free access to normal chow and water, unless otherwise specified. The HFD-fed obese mice were prepared by feeding C57BL/6 mice a HFD for at least 8 weeks from 6 weeks of age. […] Male mice were used for all the experiments in this study. The animal care and experimental procedures used in the study were approved by The University of Tokyo Animal Care Committee (Approval number: 27-3), and the study was carried out in accordance with the Animal Experimentation Guidelines of Daiichi Sankyo Co., Ltd (Approved number: 20000411).
# Mice that had been denied access to food overnight received the indicated oral dose of DS20060511 or vehicle 15 min prior to the glucose load (1.5 g kg^−1, except for eNOS-knockout mice, which received 3.0 g kg^−1). Then, after the oral glucose load, the blood glucose levels were measured using Glutest Every in samples obtained from the tail vein at the indicated timepoints. Plasma insulin concentrations were also measured with an ELISA kit (Morinaga Institute of Biological Science, Yokohama, Japan) in blood samples collected from the tail vein at the indicated timepoints.
smiles,measurement,setting,value
COc1ccc2c(C)c(C(=O)O)ccc2c1C1C2=C(CC(C)(C)CC2=O)OC2=C1C(=O)CC(C)(C)C2 [DS20060511],AMPK phosphorylation level,AMPK,no such change was observed
same,Blood glucose,"STZ-treated C57BL/6 mice; 10 mg/kg po with 0.1 U kg−1 insulin ip, 0 min, 10 mg/kg",516 mg/dL and 430 mg/dL and 520 mg/dL and 493 mg/dL and 480 mg/dL and 526 mg/dL
same,Blood glucose,"STZ-treated C57BL/6 mice; 10 mg/kg with insulin, 20 min, 10 mg/kg",427 mg/dL and 401 mg/dL and 313 mg/dL and 397 mg/dL and 311 mg/dL and 432 mg/dL
same,Blood glucose,"STZ-treated C57BL/6 mice; 30 mg/kg po with 0.1 U kg−1 insulin ip, 0 min, 30 mg/kg",433 mg/dL and 472 mg/dL and 458 mg/dL and 427 mg/dL and 461 mg/dL and 483 mg/dL and 532 mg/dL
same,"blood glucose levels, combined with insulin vs insulin alone (in words)","STZ-treated C57BL/6 mice; STZ-treated mice, Fig. 4g",reduced to a greater degree
same,Blood glucose,WT and eNOSKO mice; 0 min,77 mg/dL
same,Blood glucose,WT and eNOSKO mice; -15 min,65 mg/dL
same,Blood glucose,"[1]; GLUT4KO mice, 0 min",151 mg/dL and 106 mg/dL and 203 mg/dL and 105 mg/dL and 130 mg/dL
same,Plasma insulin,"[1]; GLUT4KO mice, 0 min",0.11 ng/mL and 0.07 ng/mL and 0.16 ng/mL and 0.12 ng/mL and 0.18 ng/mL
same,Blood glucose,"[1]; GLUT4KO mice, 15 min",361 mg/dL and 352 mg/dL and 278 mg/dL and 400 mg/dL and 444 mg/dL
same,Plasma insulin,"[1]; GLUT4KO mice, 15 min",0.43 ng/mL and 0.42 ng/mL and 0.55 ng/mL and 0.33 ng/mL and 0.70 ng/mL and 0.59 ng/mL
same,Blood glucose,"[1]; GLUT4KO mice, 30 min",422 mg/dL and 387 mg/dL and 377 mg/dL and 384 mg/dL and 492 mg/dL and 513 mg/dL
same,Plasma insulin,"[1]; GLUT4KO mice, 30 min",0.34 ng/mL and 0.39 ng/mL and 0.25 ng/mL and 0.30 ng/mL and 0.28 ng/mL
same,Blood glucose,"[1]; GLUT4KO mice, 60 min",272 mg/dL and 266 mg/dL and 232 mg/dL and 390 mg/dL and 329 mg/dL and 389 mg/dL
same,Blood glucose,"[1]; GLUT4KO mice, 90 min",175 mg/dL and 168 mg/dL and 194 mg/dL and 265 mg/dL and 245 mg/dL and 275 mg/dL
same,Blood glucose,"[1]; GLUT4KO mice, 120 min",115 mg/dL and 112 mg/dL and 165 mg/dL and 193 mg/dL and 153 mg/dL and 190 mg/dL
same,Blood glucose,"[1]; GLUT4KO mice, -15 min",93 mg/dL and 75 mg/dL and 110 mg/dL and 49 mg/dL and 95 mg/dL and 89 mg/dL
same,Plasma insulin,"[1]; GLUT4KO mice, -15 min",0.06 ng/mL and 0.10 ng/mL and 0.11 ng/mL and 0.18 ng/mL and 0.13 ng/mL and 0.14 ng/mL
same,blood glucose and plasma insulin levels during oral GTT (in words),[1]; GLUT4KO mice,completely abolished
same,Blood glucose,"[1]; Wildtype mice, 0 min",69 mg/dL and 44 mg/dL and 58 mg/dL and 62 mg/dL and 46 mg/dL
same,Plasma insulin,"[1]; Wildtype mice, 0 min",0.10 ng/mL and 0.02 ng/mL and 0.13 ng/mL and 0.14 ng/mL
same,Blood glucose,"[1]; Wildtype mice, 15 min",133 mg/dL and 103 mg/dL and 142 mg/dL and 181 mg/dL and 104 mg/dL
same,Plasma insulin,"[1]; Wildtype mice, 15 min",0.16 ng/mL and 0.14 ng/mL and 0.17 ng/mL and 0.18 ng/mL and 0.11 ng/mL
same,Blood glucose,"[1]; Wildtype mice, 30 min",124 mg/dL and 111 mg/dL and 100 mg/dL and 107 mg/dL
same,Plasma insulin,"[1]; Wildtype mice, 30 min",0.26 ng/mL and 0.10 ng/mL and 0.15 ng/mL
same,Blood glucose,"[1]; Wildtype mice, 60 min",92 mg/dL and 64 mg/dL and 99 mg/dL and 91 mg/dL and 76 mg/dL
same,Blood glucose,"[1]; Wildtype mice, 90 min",71 mg/dL and 61 mg/dL and 87 mg/dL and 88 mg/dL and 68 mg/dL
same,Blood glucose,"[1]; Wildtype mice, 120 min",74 mg/dL and 72 mg/dL and 70 mg/dL and 78 mg/dL and 82 mg/dL
same,Blood glucose,"[1]; Wildtype mice, -15 min",66 mg/dL and 39 mg/dL and 48 mg/dL and 81 mg/dL and 64 mg/dL
same,Plasma insulin,"[1]; Wildtype mice, -15 min",0.14 ng/mL and 0.18 ng/mL and 0.11 ng/mL
same,blood glucose and plasma insulin levels during oral GTT (in words),[1]; wild-type (WT) mice,significant decrease of the blood glucose and plasma insulin levels
